# From patent US6461844B1, “Liver GalNAc-1-phosphate kinase” (The Board of Trustees of the University of Arkansas, priority 1995, dated 2002)
# Entries after “also recorded” stand apart in the source; their conditions may differ.
# Columns and labels:
# GalNAc kinase [1] = biological target: T1, GalNAc kinase (Sus scrofa, UniProt A0A287BB25); test: Divalent cation requirement of GalNAc kinase; assay type: biochemical, pig; conditions: for maximum activity relative to optimum concentrations of Mg++: at optimum cation concentration; for stimulation of the kinase: tested at a variety of concentrations
# T1 construct: This enzyme was purified about 1400-fold from the cytosolic fraction of pig kidney; from tissue; host or cells: pig kidney cytosol
# T1 sequence (A0A287BB25 1-458): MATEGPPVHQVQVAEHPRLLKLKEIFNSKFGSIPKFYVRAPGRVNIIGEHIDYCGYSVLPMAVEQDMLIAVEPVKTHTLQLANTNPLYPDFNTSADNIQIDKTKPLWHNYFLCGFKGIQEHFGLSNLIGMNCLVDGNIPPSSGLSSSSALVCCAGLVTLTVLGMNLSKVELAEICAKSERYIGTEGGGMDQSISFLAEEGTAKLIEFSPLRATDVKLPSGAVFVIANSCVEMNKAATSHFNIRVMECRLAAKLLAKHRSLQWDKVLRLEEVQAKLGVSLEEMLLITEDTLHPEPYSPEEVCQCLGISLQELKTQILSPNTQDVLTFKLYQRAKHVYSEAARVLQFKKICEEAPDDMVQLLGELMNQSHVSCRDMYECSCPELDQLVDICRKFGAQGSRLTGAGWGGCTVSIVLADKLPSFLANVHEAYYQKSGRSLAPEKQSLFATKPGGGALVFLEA
# Experimental: FIG. 1 illustrates the effect of various divalent cations on the GalNAc kinase. Various amounts of Mg^++, Mn^++, or Co^++ were added to incubations prepared as indicated below. The amount of GalNAc phosphorylated in each incubation by the purified enzyme was determined as described in the assay conditions.
# (§1) GalNAc kinase activity was assayed in incubation mixtures of 200 μl containing the following components: [^3H]GalNAc (10,000 cpm), 1 μmole of ATP, 2 μmoles of MgCl2, 20 μmoles of Tris-HCl buffer, pH 7.5, and various amounts of the enzyme preparations to be assayed. Following an incubation for the appropriate time, the reaction was stopped by heating at 100° C. for 5 min., and the incubation mixture was applied to a column of DE-52. The column was washed with at least 5 column volumes of 10 mM (NH4)HCO3 buffer to remove unbound material, and then GalNAc phosphate was eluted with 500 mM ammonium bicarbonate. Aliquots of the wash and eluent were removed and assayed for their radioactive content by scintillation counting.
# The addition of Mg^++ greatly stimulated the activity, and maximum activity occurred at 6 mM Mg^++. Other divalent cations, such as Mn^++ and Co^++ were also somewhat stimulatory, but much less so than Mg^++.
# GalNAc kinase [2] = biological target: T1, GalNAc kinase; test: Sugar specificity of GalNAc kinase; assay type: biochemical, pig; conditions: for Radioactivity Incorp.: labeled sugars of same specific activity; for activity as phosphate acceptor: purified kinase; for activity as % of the activity observed with GalNAc: sugar as substrate
# Experimental: as §1
# A variety of sugars were tested and in each case the specific radioactivity of the labeled sugar was adjusted with unlabeled material so that all were of the same specific activity in order to allow a true comparison of their ability to serve as substrates for the kinase. The amount of radioactivity that bound to DE-52 and was eluted with (NH4)HCO3 was taken as a measure of phosphorylation by the enzyme.
# yeast galactokinase = biological target: T2, yeast galactokinase (Saccharomyces cerevisiae, UniProt P04385); test: Sugar specificity of yeast galactokinase; assay type: biochemical; conditions: for Radioactivity Incorporated (Δ cpm): minus 0 ul value
# T2 construct: purchased Sigma Chemical Co
# T2 sequence (P04385 1-528): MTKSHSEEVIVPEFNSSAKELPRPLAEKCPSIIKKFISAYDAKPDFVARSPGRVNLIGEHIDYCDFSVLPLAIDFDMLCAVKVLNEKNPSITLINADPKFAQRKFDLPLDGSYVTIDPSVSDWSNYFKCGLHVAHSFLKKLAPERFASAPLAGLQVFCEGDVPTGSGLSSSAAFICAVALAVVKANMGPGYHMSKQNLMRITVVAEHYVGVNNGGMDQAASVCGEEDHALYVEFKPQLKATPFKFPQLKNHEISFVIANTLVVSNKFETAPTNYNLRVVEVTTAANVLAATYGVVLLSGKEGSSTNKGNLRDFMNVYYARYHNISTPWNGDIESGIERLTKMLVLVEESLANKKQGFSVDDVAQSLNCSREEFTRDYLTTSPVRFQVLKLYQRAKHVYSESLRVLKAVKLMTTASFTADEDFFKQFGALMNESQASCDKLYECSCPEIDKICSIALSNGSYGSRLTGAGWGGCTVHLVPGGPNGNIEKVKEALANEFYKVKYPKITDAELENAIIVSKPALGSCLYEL
# Text: Galactokinase is an enzyme known to phosphorylate galactose in the one position. […] The specificity of the galactokinase and the GalNAc kinase indicate that they are two different enzymes.
# GalNAc kinase [3] = biological target: T1, GalNAc kinase; test: Effect of sulfhydryl reagents on GalNAc kinase activity; assay type: biochemical, pig; conditions: for Activity (cpm in Sugar-P): control 8700
# Experimental: as §1
# In order to determine whether sulfhydryl groups are necessary for catalytic activity, the effects of various compounds known to react with and inactivate sulfhydryl groups, were examined on the kinase activity.
# GalNAc kinase [4] = biological target: T1, GalNAc kinase; test: Phosphate donor specificity of GalNAc kinase; assay type: biochemical, pig; set-up: Radioactivity in Sugar-P: unit not given beside the values; conditions: for Radioactivity in Sugar-P / Specific Activity: nucleotide added at 5 mM
smiles,measurement,setting,value
[Mn+2] [Mn^++],cation concentration for maximum (optimum) activity,GalNAc kinase [1],2 to 8 mM
same,maximum activity relative to optimum concentrations of Mg++,GalNAc kinase [1],about 50%
[Ni+2] [Ni^++],stimulation of the kinase,GalNAc kinase [1],inactive
[Cu+2] [Cu^++],stimulation of the kinase,GalNAc kinase [1],inactive
"N[C@H]1C(O)O[C@H](CO)[C@H](O)[C@@H]1O (stereo partly drawn) [GalN, galactosamine]",Radioactivity Incorp.,GalNAc kinase [2]; 4 μl enzyme,449 cpm
same,Radioactivity Incorp.,GalNAc kinase [2]; 8 μl enzyme,468 cpm
same,activity as phosphate acceptor,GalNAc kinase [2],inactive
same,activity as % of the activity observed with GalNAc,GalNAc kinase [2],1%
same,activity as substrate of yeast galactokinase,yeast galactokinase,slight activity
same,Radioactivity Incorporated,yeast galactokinase; 2 ul enzyme,300 cpm
same,Radioactivity Incorporated (Δ cpm),yeast galactokinase; 2 ul enzyme,173 cpm
same,Radioactivity Incorporated,yeast galactokinase; 4 ul enzyme,440 cpm
"O=C(O)c1cc[c]([Hg][Cl])cc1 [pCMB, p-chloromercuribenzoate]",inhibition of enzymatic activity,GalNAc kinase [3]; 0.02 mM,over 70%
same,inhibition of enzymatic activity,GalNAc kinase [3]; 0.04 mM,complete inhibition
same,Activity (cpm in Sugar-P),GalNAc kinase [3]; inhibitor 0.02 mM,2660 cpm
same,Activity (cpm in Sugar-P),GalNAc kinase [3]; inhibitor 0.04 mM,250 cpm
same,Activity (cpm in Sugar-P),GalNAc kinase [3]; inhibitor 0.06 mM,30 cpm
same,Activity (cpm in Sugar-P),GalNAc kinase [3]; inhibitor 0.1 mM,20 cpm
same,Activity (cpm in Sugar-P),GalNAc kinase [3]; inhibitor 0.25 mM,50 cpm
Nc1nc2c(ncn2[C@@H]2O[C@H](COP(=O)(O)OP(=O)(O)OP(=O)(O)O)[C@@H](O)[C@H]2O)c(=O)[nH]1 [GTP],activity as phosphate donor,GalNAc kinase [4],only slightly above background levels
same,Radioactivity in Sugar-P,GalNAc kinase [4],300
same,Specific Activity,GalNAc kinase [4],4.7 nmol/mg
"CCN1C(=O)C=CC1=O [NEM, N-ethylmaleimide]",inhibition at 500 µM,"GalNAc kinase [3]; 0.5 mM, read-out: inhibition of enzymatic activity",90%
same,Activity (cpm in Sugar-P),GalNAc kinase [3]; inhibitor 0.1 mM,9050 cpm
same,Activity (cpm in Sugar-P),GalNAc kinase [3]; inhibitor 0.5 mM,805 cpm
same,Activity (cpm in Sugar-P),GalNAc kinase [3]; inhibitor 1 mM,40 cpm
same,Activity (cpm in Sugar-P),GalNAc kinase [3]; inhibitor 2 mM,0 cpm
same,Activity (cpm in Sugar-P),GalNAc kinase [3]; inhibitor 4 mM,0 cpm
O=c1[nH]cnc2c1ncn2[C@@H]1O[C@H](COP(=O)(O)OP(=O)(O)OP(=O)(O)O)[C@@H](O)[C@H]1O [ITP],activity as phosphate donor,GalNAc kinase [4],slight activity; also recorded: some activity
same,Radioactivity in Sugar-P,GalNAc kinase [4],900
same,Specific Activity,GalNAc kinase [4],14.1 nmol/mg
[Fe+3] [Fe^+++],stimulation of the kinase,GalNAc kinase [1],inactive
"CC(=O)N[C@H]1C(O)O[C@H](CO)[C@@H](O)[C@@H]1O (stereo partly drawn) [GlcNAc, N-acetylglucosamine]",Radioactivity Incorp.,GalNAc kinase [2]; 4 μl enzyme,135 cpm
same,Radioactivity Incorp.,GalNAc kinase [2]; 8 μl enzyme,147 cpm
same,activity as phosphate acceptor,GalNAc kinase [2],inactive
same,Radioactivity Incorporated,yeast galactokinase; 2 ul enzyme,133 cpm
same,Radioactivity Incorporated (Δ cpm),yeast galactokinase; 2 ul enzyme,60 cpm
same,Radioactivity Incorporated,yeast galactokinase; 4 ul enzyme,84 cpm
same,Radioactivity Incorporated (Δ cpm),yeast galactokinase; 4 ul enzyme,10 cpm
"N[C@H]1C(O)O[C@H](CO)[C@@H](O)[C@@H]1O (stereo partly drawn) [GlcN, glucosamine]",Radioactivity Incorp.,GalNAc kinase [2]; 4 μl enzyme,189 cpm
same,Radioactivity Incorp.,GalNAc kinase [2]; 8 μl enzyme,206 cpm
same,activity as phosphate acceptor,GalNAc kinase [2],inactive
same,Radioactivity Incorporated,yeast galactokinase; 2 ul enzyme,135 cpm
same,Radioactivity Incorporated (Δ cpm),yeast galactokinase; 2 ul enzyme,0 cpm
same,Radioactivity Incorporated,yeast galactokinase; 4 ul enzyme,150 cpm
same,Radioactivity Incorporated (Δ cpm),yeast galactokinase; 4 ul enzyme,0 cpm
Nc1ccn([C@@H]2O[C@H](COP(=O)(O)OP(=O)(O)O)[C@@H](O)[C@H]2O)c(=O)n1 [CDP],activity as phosphate donor,GalNAc kinase [4],only slightly above background levels
same,Radioactivity in Sugar-P,GalNAc kinase [4],490
same,Specific Activity,GalNAc kinase [4],7.6 nmol/mg
Nc1nc2c(ncn2[C@@H]2O[C@H](COP(=O)(O)OP(=O)(O)O)[C@@H](O)[C@H]2O)c(=O)[nH]1 [GDP],Radioactivity in Sugar-P,GalNAc kinase [4],10
same,Specific Activity,GalNAc kinase [4],0.1 nmol/mg
[Co+2] [Co^++],cation concentration for maximum (optimum) activity,GalNAc kinase [1],10 mM
same,maximum activity relative to optimum concentrations of Mg++,GalNAc kinase [1],about 50%
[Mo+2] [Mo^++],stimulation of the kinase,GalNAc kinase [1],inactive
O=c1ccn([C@@H]2O[C@H](COP(=O)(O)OP(=O)(O)OP(=O)(O)O)[C@@H](O)[C@H]2O)c(=O)[nH]1 [UTP],Radioactivity in Sugar-P,GalNAc kinase [4],180
same,Specific Activity,GalNAc kinase [4],2.8 nmol/mg
"CC(=O)N[C@H]1C(O)O[C@H](CO)[C@H](O)[C@@H]1O (stereo partly drawn) [GalNAc, N-acetylgalactosamine]",Radioactivity Incorp.,GalNAc kinase [2]; 4 μl enzyme,"14,094 cpm"
same,Radioactivity Incorp.,GalNAc kinase [2]; 8 μl enzyme,"18,448 cpm"
same,activity as substrate of yeast galactokinase,yeast galactokinase,no phosphorylation
same,Radioactivity Incorporated,yeast galactokinase; 2 ul enzyme,37 cpm
same,Radioactivity Incorporated (Δ cpm),yeast galactokinase; 2 ul enzyme,0 cpm
same,Radioactivity Incorporated,yeast galactokinase; 4 ul enzyme,83 cpm
same,Radioactivity Incorporated (Δ cpm),yeast galactokinase; 4 ul enzyme,11 cpm
Nc1ncnc2c1ncn2[C@@H]1O[C@H](COP(=O)(O)OP(=O)(O)O)[C@@H](O)[C@H]1O [ADP],activity as phosphate donor,GalNAc kinase [4],only slightly above background levels
same,Radioactivity in Sugar-P,GalNAc kinase [4],260
same,Specific Activity,GalNAc kinase [4],4.0 nmol/mg
"CC(=O)N[C@@H]1C(O)O[C@H](CO)[C@@H](O)[C@@H]1O (stereo partly drawn) [ManNAc, N-acetylmannosamine]",Radioactivity Incorp.,GalNAc kinase [2]; 4 μl enzyme,475 cpm
same,Radioactivity Incorp.,GalNAc kinase [2]; 8 μl enzyme,89 cpm
same,activity as phosphate acceptor,GalNAc kinase [2],inactive
[Zn+2] [Zn^++],stimulation of the kinase,GalNAc kinase [1],inactive
O=c1ccn([C@@H]2O[C@H](COP(=O)(O)OP(=O)(O)O)[C@@H](O)[C@H]2O)c(=O)[nH]1 [UDP],Radioactivity in Sugar-P,GalNAc kinase [4],30
same,Specific Activity,GalNAc kinase [4],0.5 nmol/mg
"O=C[C@H](O)[C@@H](O)[C@@H](O)[C@H](O)CO [Gal, galactose]",Radioactivity Incorp.,GalNAc kinase [2]; 4 μl enzyme,301 cpm
same,Radioactivity Incorp.,GalNAc kinase [2]; 8 μl enzyme,442 cpm
same,activity as phosphate acceptor,GalNAc kinase [2],inactive
same,activity as % of the activity observed with GalNAc,GalNAc kinase [2],1%
same,activity as substrate of yeast galactokinase,yeast galactokinase,very active
same,Radioactivity Incorporated,yeast galactokinase; 2 ul enzyme,6900 cpm
same,Radioactivity Incorporated (Δ cpm),yeast galactokinase; 2 ul enzyme,6835 cpm
same,Radioactivity Incorporated,yeast galactokinase; 4 ul enzyme,7530 cpm
same,Radioactivity Incorporated (Δ cpm),yeast galactokinase; 4 ul enzyme,7465 cpm
C=C(OP(=O)(O)O)C(=O)O [phosphoenolpyruvate],activity as phosphate donor,GalNAc kinase [4],No activity
CC(=O)OP(=O)(O)O [acetylphosphate],activity as phosphate donor,GalNAc kinase [4],No activity
"NC(=O)CI [IAA, iodoacetamide]",concentration at which effective as an inhibitor,GalNAc kinase [3],above 1 mM
same,Activity (cpm in Sugar-P),GalNAc kinase [3]; inhibitor 0.1 mM,8260 cpm
same,Activity (cpm in Sugar-P),GalNAc kinase [3]; inhibitor 0.5 mM,7660 cpm
same,Activity (cpm in Sugar-P),GalNAc kinase [3]; inhibitor 1 mM,5490 cpm
same,Activity (cpm in Sugar-P),GalNAc kinase [3]; inhibitor 2 mM,2170 cpm
same,Activity (cpm in Sugar-P),GalNAc kinase [3]; inhibitor 4 mM,658 cpm
Nc1ccn([C@@H]2O[C@H](COP(=O)(O)OP(=O)(O)OP(=O)(O)O)[C@@H](O)[C@H]2O)c(=O)n1 [CTP],activity as phosphate donor,GalNAc kinase [4],only slightly above background levels
same,Radioactivity in Sugar-P,GalNAc kinase [4],370
same,Specific Activity,GalNAc kinase [4],5.8 nmol/mg
[Ca+2] [Ca^++],stimulation of the kinase,GalNAc kinase [1],inactive
